Calls of active or inactive are those of the source. How the calls were made is not given here.
Test system: CCRIS mutagenicity, Ames/micronucleus/aberration tests
Experiment: CCRIS mutagenicity studies
[1] = Test System: AMES SALMONELLA TYPHIMURIUM, Strain/Indicator: TA98, Metabolic Activation: NONE, Method: PREINCUBATION
[2] = Test System: AMES SALMONELLA TYPHIMURIUM, Strain/Indicator: TA100, Metabolic Activation: NONE, Method: PREINCUBATION

SMILES: c1ccc2ncccc2c1
- mutagenic call (End Point: IN VITRO CHROMOSOMAL ABERRATIONS, Test System: CHL CELLS, Metabolic Activation: NONE): inactive; negative
- mutagenic call (End Point: IN VITRO CHROMOSOMAL ABERRATIONS, Test System: CHL CELLS, Metabolic Activation: RAT, LIVER, S-9, SODIUM PHENOBARBITAL AND 5,6-BENZOFLAVONE): active; positive (structural changes)
- mutagenic call (End Point: IN VIVO MICRONUCLEUS, Test System: HEPATOCYTES, Species: RAT, Strain/Sex: FISHER 344 OR SD/MALE, Route: ORAL OR IP): active; positive
- mutagenic call (End Point: IN VIVO MICRONUCLEUS, Test System: PERIPHERAL BLOOD RETICULOCYTES, Species: RAT, Strain/Sex: FISHER 344 OR SD/MALE, Route: ORAL OR IP): inactive; negative; significant increase at 150 mg/kg
- mutagenic call (End Point: In vitro chromosomal aberrations, Test System: Chinese hamster lung fibroblast cells (CHL/IU), Metabolic Activation: Rat, liver, S-9): active; positive (information derived from figure)
- mutagenic call (End Point: In vitro micronucleus, Test System: Chinese hamster lung fibroblast cells (CHL/IU), Metabolic Activation: Rat, Liver, S-9): active; positive, cytotoxic at 0.1 mg/ml (information derived from a figure)
- mutagenic call (End Point: In vitro micronucleus, Test System: Chinese hamster lung fibroblast cells (CHL/IU), Metabolic Activation: Rat, liver, S-9): active; positive (information derived from a figure)
- mutagenic call (End Point: In vivo micronucleus, Test System: Micronucleated hepatocytes, Species: Rat, Strain/Sex: F344/Male, Route: Oral): active; positive (p<0.05)
- mutagenic call [1]: inactive; negative
- mutagenic call (Test System: AMES SALMONELLA TYPHIMURIUM, Strain/Indicator: TA98, Metabolic Activation: RAT LIVER S-9, PHENOBARBITAL AND BETA-NAPHTHOFLAVONE, Method: PREINCUBATION): active; positive
- mutagenic call (Test System: AMES SALMONELLA TYPHIMURIUM, Strain/Indicator: TA98, Metabolic Activation: RAT, LIVER, S-9, (5%, 10% OR 20%) AROCLOR 1254, Method: STANDARD PLATE): active; positive
- mutagenic call (Test System: AMES SALMONELLA TYPHIMURIUM, Strain/Indicator: TA98, Metabolic Activation: RAT, LIVER, S-9, AROCLOR 1254, Method: STANDARD PLATE): active; positive
- mutagenic call (Test System: AMES SALMONELLA TYPHIMURIUM, Strain/Indicator: TA98, Metabolic Activation: RAT, LIVER, S-9, KC500 OR PHENOBARBITAL, Method: LIQUID SUSPENSION): active; positive
- mutagenic call (Test System: AMES SALMONELLA TYPHIMURIUM, Strain/Indicator: TA98, Metabolic Activation: RAT, LIVER, S-9, PCB, Method: PREINCUBATION): active; positive
- mutagenic call (Test System: AMES SALMONELLA TYPHIMURIUM, Strain/Indicator: TA98, Metabolic Activation: RAT, LIVER, S-9, Method: PREINCUBATION): active; positive
- mutagenic call [2]: inactive; negative
- mutagenic call (Test System: AMES SALMONELLA TYPHIMURIUM, Strain/Indicator: TA100, Metabolic Activation: RAT LIVER S-9, PHENOBARBITAL AND 5,6-BENZOFLAVONE, Method: PREINCUBATION): active; positive
- mutagenic call (Test System: AMES SALMONELLA TYPHIMURIUM, Strain/Indicator: TA100, Metabolic Activation: RAT LIVER S-9, PHENOBARBITAL AND BETA-NAPHTHOFLAVONE, Method: PREINCUBATION): active; positive
- mutagenic call (Test System: AMES SALMONELLA TYPHIMURIUM, Strain/Indicator: TA100, Metabolic Activation: RAT, LIVER, S-9 (5%, 10% OR 20%) AROCLOR 1254, Method: STANDARD PLATE): active; positive
- mutagenic call (Test System: AMES SALMONELLA TYPHIMURIUM, Strain/Indicator: TA100, Metabolic Activation: RAT, LIVER, S-9, (5%, 10% OR 20%,) AROCLOR 1254, Method: STANDARD PLATE): active; positive
- mutagenic call (Test System: AMES SALMONELLA TYPHIMURIUM, Strain/Indicator: TA100, Metabolic Activation: RAT, LIVER, S-9, AROCLOR 1254, Method: PREINCUBATION): active; positive
- mutagenic call (Test System: AMES SALMONELLA TYPHIMURIUM, Strain/Indicator: TA100, Metabolic Activation: RAT, LIVER, S-9, KC500 OR PHENOBARBITAL, Method: LIQUID SUSPENSION): active; positive
- mutagenic call (Test System: AMES SALMONELLA TYPHIMURIUM, Strain/Indicator: TA100, Metabolic Activation: RAT, LIVER, S-9, PCB, Method: STANDARD PLATE): active; positive
- mutagenic call (Test System: AMES SALMONELLA TYPHIMURIUM, Strain/Indicator: TA100, Metabolic Activation: RAT, LIVER, S-9, PHENOBARBITAL AND 5,6-BENZOFLAVONE, Method: PREINCUBATION): active; positive
- mutagenic call (Test System: AMES SALMONELLA TYPHIMURIUM, Strain/Indicator: TA100, Metabolic Activation: RAT, LIVER, S-9, PHENOBARBITAL AND 5,6-NAPHTHOFLAVONE, Method: PREINCUBATION): active; positive
- mutagenic call (Test System: AMES SALMONELLA TYPHIMURIUM, Strain/Indicator: TA100, Metabolic Activation: RAT, LIVER, S-9, Method: PREINCUBATION): active; positive
- mutagenic call (Test System: AMES SALMONELLA TYPHIMURIUM, Strain/Indicator: TA100, Metabolic Activation: S-9, Method: PREINCUBATION): active; positive
- mutagenic call (Test System: AMES SALMONELLA TYPHIMURIUM, Strain/Indicator: TA1535, Metabolic Activation: NONE, Method: PREINCUBATION): inactive; negative
- mutagenic call (Test System: AMES SALMONELLA TYPHIMURIUM, Strain/Indicator: TA1535, Metabolic Activation: RAT, LIVER, S-9, AROCLOR 1254, Method: STANDARD PLATE): inactive; negative
- mutagenic call (Test System: AMES SALMONELLA TYPHIMURIUM, Strain/Indicator: TA1537, Metabolic Activation: NONE, Method: PREINCUBATION): inactive; negative
- mutagenic call (Test System: E. COLI, Strain/Indicator: WP2UVRA, Metabolic Activation: NONE, Method: PREINCUBATION): inactive; negative
- mutagenic call (Test System: E.COLI, Strain/Indicator: WP2UVRA, Metabolic Activation: RAT LIVER S-9, PHENOBARBITAL AND BETA-NAPHTHOFLAVONE, Method: PREINCUBATION): active; positive
- mutagenic call (Test System: UDS RODENT HEPATOCYTES, Strain/Indicator: THY INCORP (NON-S-PHASE), Metabolic Activation: IN VIVO, Method: AUTORADIOGRAPHY): inactive; negative
- mutagenic call (Test System: UDS RODENT HEPATOCYTES, Strain/Indicator: THY INCORP (NON-S-PHASE), Metabolic Activation: NONE, Method: AUTORADIOGRAPHY): active; positive

SMILES: CN(C)CCNC(=O)c1ccc2c(N)c3ccccc3nc2c1
- mutagenic call (Test System: AMES SALMONELLA TYPHIMURIUM, Strain/Indicator: TA1537, Metabolic Activation: NONE, Method: STANDARD PLATE): inactive; negative

SMILES: O=[N+]([O-])c1ccc2ccc3cc4c(c5ccc1c2c35)[C@H](O)[C@@H](O)C=C4
- mutagenic call (Test System: AMES SALMONELLA TYPHIMURIUM, Strain/Indicator: TA98(1,8-DNP6), Metabolic Activation: NONE): active; positive
- mutagenic call (Test System: AMES SALMONELLA TYPHIMURIUM, Strain/Indicator: TA98(1,8-DNP6), Metabolic Activation: RAT, LIVER, S-9, AROCLOR 1254): active; positive
- mutagenic call (Test System: AMES SALMONELLA TYPHIMURIUM, Strain/Indicator: TA98(NR), Metabolic Activation: NONE): active; positive
- mutagenic call (Test System: AMES SALMONELLA TYPHIMURIUM, Strain/Indicator: TA98(NR), Metabolic Activation: RAT, LIVER, S-9, AROCLOR 1254): active; positive
- mutagenic call (Test System: AMES SALMONELLA TYPHIMURIUM, Strain/Indicator: TA98, Metabolic Activation: NONE): active; positive
- mutagenic call (Test System: AMES SALMONELLA TYPHIMURIUM, Strain/Indicator: TA98, Metabolic Activation: RAT, LIVER, S-9, AROCLOR 1254): active; positive
- mutagenic call (Test System: CHINESE HAMSTER OVARY, Strain/Indicator: CHO-K1-BH4 (HGPRT), Metabolic Activation: NONE): inactive; negative
- mutagenic call (Test System: CHINESE HAMSTER OVARY, Strain/Indicator: CHO-K1-BH4 (HGPRT), Metabolic Activation: RAT, LIVER, S-9, 3-METHYLCHOLANTHRENE): inactive; negative

SMILES: c1ccc2c(c1)-c1cccc3c1c-2cc1ccccc13
- mutagenic call (Test System: AMES SALMONELLA TYPHIMURIUM, Strain/Indicator: TA98, Metabolic Activation: HAMSTER, LIVER, S-9, AROCLOR 1254 (10%), Method: PREINCUBATION): active; positive
- mutagenic call (Test System: AMES SALMONELLA TYPHIMURIUM, Strain/Indicator: TA98, Metabolic Activation: MOUSE, LIVER, S-9, AROCLOR 1254, Method: STANDARD PLATE): active; positive
- mutagenic call [1]: inactive; negative
- mutagenic call (Test System: AMES SALMONELLA TYPHIMURIUM, Strain/Indicator: TA98, Metabolic Activation: RAT, LIVER, S-9, AROCLOR 1254 (10%), Method: PREINCUBATION): inactive; negative
- mutagenic call (Test System: AMES SALMONELLA TYPHIMURIUM, Strain/Indicator: TA100, Metabolic Activation: HAMSTER, LIVER, S-9, AROCLOR 1254 (10%), Method: PREINCUBATION): active; positive
- mutagenic call [2]: inactive; negative
- mutagenic call (Test System: AMES SALMONELLA TYPHIMURIUM, Strain/Indicator: TA100, Metabolic Activation: RAT, LIVER, S-9, AROCLOR 1254): active; positive
- mutagenic call (Test System: AMES SALMONELLA TYPHIMURIUM, Strain/Indicator: TA100, Metabolic Activation: RAT, LIVER, S-9, AROCLOR 1254 (10%), Method: PREINCUBATION): active; positive
- mutagenic call (Test System: AMES SALMONELLA TYPHIMURIUM, Strain/Indicator: TA100, Metabolic Activation: RAT, LIVER, S-9, AROCLOR 1254, Method: STANDARD PLATE): active; positive

Source: PubChem BioAssay AID1259407 (Chemical Carcinogenesis Research Information System (CCRIS), 2018)
